# Test results from the supplement of paper PMC10307832.
# Tests used:
# Assay in all cases: relative viability (nuclei count vs DMSO), 5 days (fraction); higher = more cells survive
# 201T = test system: 201T
# Method in brief: (§1)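 Values are medians from duplicate plates. Each reflects relative viability, defined as the nuclei count of treated wells over that of vehicle wells. Lung cancer cell lines in 1536-well plates were pin-tool dosed one day after seeding with one drug alone or with a fixed anchor-drug dose plus five library-drug doses (not always all listed) in √10 steps, then fixed, stained and imaged at 4× after 5 days.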
# BEN = test system: BEN
# Method in brief: as §1
# EMC-BAC-2 = test system: EMC-BAC-2
# Method in brief: as §1
# HARA = test system: HARA
# Method in brief: as §1
# HCC-44 = test system: HCC-44
# Method in brief: as §1
# LCLC-103H = test system: LCLC-103H
# Method in brief: as §1
# LOU-NH91 = test system: LOU-NH91
# Method in brief: as §1
# NCI-H1395 = test system: NCI-H1395
# Method in brief: as §1
# NCI-H1666 = test system: NCI-H1666
# Method in brief: as §1
# NCI-H1993 = test system: NCI-H1993
# Method in brief: as §1
# NCI-H2009 = test system: NCI-H2009
# Method in brief: as §1
# NCI-H2023 = test system: NCI-H2023
# Method in brief: as §1
# NCI-H2087 = test system: NCI-H2087
# Method in brief: as §1
# NCI-H2126 = test system: NCI-H2126
# Method in brief: as §1
# NCI-H2347 = test system: NCI-H2347
# Method in brief: as §1
# NCI-H23 = test system: NCI-H23
# Method in brief: as §1
# NCI-H3122 = test system: NCI-H3122
# Method in brief: as §1
# NCI-H441 = test system: NCI-H441
# Method in brief: as §1
# NCI-H522 = test system: NCI-H522
# Method in brief: as §1
# NCI-H596 = test system: NCI-H596
# Method in brief: as §1
# NCI-H647 = test system: NCI-H647
# Method in brief: as §1
# NCI-H650 = test system: NCI-H650
# Method in brief: as §1
# NCI-H727 = test system: NCI-H727
# Method in brief: as §1
# NCI-H838 = test system: NCI-H838
# Method in brief: as §1
smiles,measurement,setting,value
COc1cc(N2CCC(C(N)=O)CC2)ccc1Nc1nc(N)c(Cl)c(Nc2ccccc2S(=O)(=O)C(C)C)n1 [HG-5-88-01] + COc1cccc2cc(-c3nc([C@H]4CC[C@H](C(=O)O)CC4)n4ncnc(N)c34)[nH]c12 [OSI-027] (partner 0.5 µM),relative viability,201T; first compound 0.04 µM,0.84
same,relative viability,201T; first compound 0.1265 µM,0.745
same,relative viability,201T; first compound 0.4 µM,0.428
same,relative viability,201T; first compound 1.265 µM,0.668
same,relative viability,201T; first compound 4 µM,0.303
same,relative viability,BEN; first compound 0.04 µM,0.305
same,relative viability,BEN; first compound 0.1265 µM,0.312
same,relative viability,BEN; first compound 0.4 µM,0.262
same,relative viability,BEN; first compound 1.265 µM,0.3
same,relative viability,BEN; first compound 4 µM,0.262
same,relative viability,EMC-BAC-2; first compound 0.04 µM,0.361
same,relative viability,EMC-BAC-2; first compound 0.1265 µM,0.371
same,relative viability,EMC-BAC-2; first compound 0.4 µM,0.326
same,relative viability,EMC-BAC-2; first compound 1.265 µM,0.307
same,relative viability,EMC-BAC-2; first compound 4 µM,0.251
same,relative viability,HARA; first compound 0.04 µM,0.378
same,relative viability,HARA; first compound 0.1265 µM,0.578
same,relative viability,HARA; first compound 0.4 µM,0.437
same,relative viability,HARA; first compound 1.265 µM,0.121
same,relative viability,HARA; first compound 4 µM,0.144
same,relative viability,HCC-44; first compound 0.04 µM,0.491
same,relative viability,HCC-44; first compound 0.1265 µM,0.507
same,relative viability,HCC-44; first compound 0.4 µM,0.353
same,relative viability,HCC-44; first compound 1.265 µM,0.392
same,relative viability,HCC-44; first compound 4 µM,0.121
same,relative viability,LCLC-103H; first compound 0.04 µM,0.416
same,relative viability,LCLC-103H; first compound 0.1265 µM,0.435
same,relative viability,LCLC-103H; first compound 0.4 µM,0.381
same,relative viability,LCLC-103H; first compound 1.265 µM,0.362
same,relative viability,LCLC-103H; first compound 4 µM,0.405
same,relative viability,LOU-NH91; first compound 0.04 µM,0.602
same,relative viability,LOU-NH91; first compound 0.1265 µM,0.635
same,relative viability,LOU-NH91; first compound 0.4 µM,0.615
same,relative viability,LOU-NH91; first compound 1.265 µM,0.442
same,relative viability,LOU-NH91; first compound 4 µM,0.451
same,relative viability,NCI-H1395; first compound 0.04 µM,0.583
same,relative viability,NCI-H1395; first compound 0.1265 µM,0.66
same,relative viability,NCI-H1395; first compound 0.4 µM,0.638
same,relative viability,NCI-H1395; first compound 1.265 µM,0.646
same,relative viability,NCI-H1395; first compound 4 µM,0.631
same,relative viability,NCI-H1666; first compound 0.04 µM,0.866
same,relative viability,NCI-H1666; first compound 0.1265 µM,0.859
same,relative viability,NCI-H1666; first compound 0.4 µM,0.692
same,relative viability,NCI-H1666; first compound 1.265 µM,0.605
same,relative viability,NCI-H1666; first compound 4 µM,0.532
same,relative viability,NCI-H1993; first compound 0.04 µM,0.536
same,relative viability,NCI-H1993; first compound 0.1265 µM,0.504
same,relative viability,NCI-H1993; first compound 0.4 µM,0.52
same,relative viability,NCI-H1993; first compound 1.265 µM,0.532
same,relative viability,NCI-H1993; first compound 4 µM,0.536
same,relative viability,NCI-H2009; first compound 0.04 µM,0.565
same,relative viability,NCI-H2009; first compound 0.1265 µM,0.585
same,relative viability,NCI-H2009; first compound 0.4 µM,0.423
same,relative viability,NCI-H2009; first compound 1.265 µM,0.444
same,relative viability,NCI-H2009; first compound 4 µM,0.353
same,relative viability,NCI-H2023; first compound 0.04 µM,0.433
same,relative viability,NCI-H2023; first compound 0.1265 µM,0.407
same,relative viability,NCI-H2023; first compound 0.4 µM,0.205
same,relative viability,NCI-H2023; first compound 1.265 µM,0.109
same,relative viability,NCI-H2023; first compound 4 µM,0.127
same,relative viability,NCI-H2087; first compound 0.04 µM,0.521
same,relative viability,NCI-H2087; first compound 0.1265 µM,0.542
same,relative viability,NCI-H2087; first compound 0.4 µM,0.505
same,relative viability,NCI-H2087; first compound 1.265 µM,0.349
same,relative viability,NCI-H2087; first compound 4 µM,0.215
same,relative viability,NCI-H2126; first compound 0.1265 µM,0.688
same,relative viability,NCI-H2126; first compound 0.4 µM,0.71
same,relative viability,NCI-H2126; first compound 1.265 µM,0.518
same,relative viability,NCI-H2126; first compound 4 µM,0.432
same,relative viability,NCI-H2347; first compound 0.04 µM,0.363
same,relative viability,NCI-H2347; first compound 0.1265 µM,0.448
same,relative viability,NCI-H2347; first compound 0.4 µM,0.388
same,relative viability,NCI-H2347; first compound 1.265 µM,0.25
same,relative viability,NCI-H2347; first compound 4 µM,0.274
same,relative viability,NCI-H23; first compound 0.04 µM,0.511
same,relative viability,NCI-H23; first compound 0.1265 µM,0.605
same,relative viability,NCI-H23; first compound 0.4 µM,0.615
same,relative viability,NCI-H23; first compound 1.265 µM,0.311
same,relative viability,NCI-H23; first compound 4 µM,0.238
same,relative viability,NCI-H3122; first compound 0.04 µM,0.226
same,relative viability,NCI-H3122; first compound 0.1265 µM,0.213
same,relative viability,NCI-H3122; first compound 0.4 µM,0.114
same,relative viability,NCI-H3122; first compound 1.265 µM,0.149
same,relative viability,NCI-H3122; first compound 4 µM,0.129
same,relative viability,NCI-H441; first compound 0.04 µM,0.787
same,relative viability,NCI-H441; first compound 0.1265 µM,0.77
same,relative viability,NCI-H441; first compound 0.4 µM,0.848
same,relative viability,NCI-H441; first compound 1.265 µM,0.437
same,relative viability,NCI-H441; first compound 4 µM,0.421
same,relative viability,NCI-H522; first compound 0.04 µM,0.641
same,relative viability,NCI-H522; first compound 0.1265 µM,0.634
same,relative viability,NCI-H522; first compound 0.4 µM,0.66
same,relative viability,NCI-H522; first compound 1.265 µM,0.579
same,relative viability,NCI-H522; first compound 4 µM,0.61
same,relative viability,NCI-H596; first compound 0.04 µM,0.61
same,relative viability,NCI-H596; first compound 0.1265 µM,0.693
same,relative viability,NCI-H596; first compound 0.4 µM,0.729
same,relative viability,NCI-H596; first compound 1.265 µM,0.59
same,relative viability,NCI-H596; first compound 4 µM,0.393
same,relative viability,NCI-H647; first compound 0.04 µM,0.622
same,relative viability,NCI-H647; first compound 0.1265 µM,0.63
same,relative viability,NCI-H647; first compound 0.4 µM,0.613
same,relative viability,NCI-H647; first compound 1.265 µM,0.566
same,relative viability,NCI-H647; first compound 4 µM,0.648
same,relative viability,NCI-H650; first compound 0.04 µM,0.492
same,relative viability,NCI-H650; first compound 0.1265 µM,0.476
same,relative viability,NCI-H650; first compound 0.4 µM,0.431
same,relative viability,NCI-H650; first compound 1.265 µM,0.443
same,relative viability,NCI-H650; first compound 4 µM,0.319
same,relative viability,NCI-H727; first compound 0.04 µM,0.423
same,relative viability,NCI-H727; first compound 0.1265 µM,0.619
same,relative viability,NCI-H727; first compound 0.4 µM,0.493
same,relative viability,NCI-H727; first compound 1.265 µM,0.424
same,relative viability,NCI-H727; first compound 4 µM,0.355
same,relative viability,NCI-H838; first compound 0.04 µM,0.359
same,relative viability,NCI-H838; first compound 0.1265 µM,0.333
same,relative viability,NCI-H838; first compound 0.4 µM,0.238
same,relative viability,NCI-H838; first compound 1.265 µM,0.247
same,relative viability,NCI-H838; first compound 4 µM,0.173
